Test results published in ChEMBL document CHEMBL1129027, “4'-Methyl derivatives of 5-MOP and 5-MOA: synthesis, photoreactivity, and photobiological activity” (J Med Chem, 1996).
Activity calls are given as the source filed them. No cut-off for these calls is given here.

Assays:
A-431 = assay: Compound was evaluated for cell growth inhibition against A 431 cell line by irradiation in the presence of examined compound; format: functional, cell-based; settings: Homo sapiens, A-431, light or radiation study
HL-60 = assay: Compound was evaluated for cell growth inhibition against HL 60 cell line by irradiation in the presence of examined compound; format: functional, cell-based; settings: Homo sapiens, HL-60, light or radiation study
Cavia porcellus [1] = assay: Compound was tested for skin photosensitizing potency in guinea pig, after exposure to 50 microg cm e-2,and 20 kJ m e-2 of UVA; strong(with edema); format: functional, organism-based
HeLa = assay: Compound was evaluated for cell growth inhibition against HeLa cell line by irradiation in the presence of examined compound; format: functional, cell-based; settings: Homo sapiens, light or radiation study
Nucleic Acid [2] = assay: Rate constant of the photoreaction between compound and DNA; format: nucleic-acid assay; settings: Bos taurus
Cavia porcellus [3] = species: Cavia porcellus; assay: Compound was tested for skin photosensitizing potency in guinea pig, after exposure to 50 microg cm e-2,and 20 kJ m e-2 of UVA; Absent; format: functional, organism-based
Nucleic Acid [4] = assay: Binding parameters of complexes between compound and DNA; format: nucleic-acid assay; settings: Bos taurus
Cavia porcellus [5] = species: Cavia porcellus; assay: Compound was tested for skin photosensitizing potency in guinea pig, after exposure to 50 microg cm e-2,and 20 kJ m e-2 of UVA; Medium; format: functional, organism-based

Row | Compound | IC50 (A-431) | IC50 (HL-60) | IC50 (HeLa) | Rate constant (Nucleic Acid [2]) | K (Nucleic Acid [4]) | Formation of erythema (Cavia porcellus [1]) | Formation of erythema (Cavia porcellus [3]) | Formation of erythema (Cavia porcellus [5])
1 | COc1cc2occ(C)c2c2oc(=O)c(C)cc12 | 1370 nM | 590 nM | 1060 nM | 0.17 min⁻¹ | 3100 M⁻¹ | – | inactive | –
2 | COc1c2cc(C)c(=O)oc2cc2occ(C)c12 | 7750 nM | 2720 nM | 6830 nM | 0.32 min⁻¹ | 920 M⁻¹ | – | – | Medium
3 | COc1cc2occc2c2oc(=O)ccc12 [ISOBERGAPTENE] | 7720 nM | > 10000 nM | > 10000 nM | – | – | – | inactive | –
4 | COc1cc2occ(C)c2c2oc(=O)cc(C)c12 | 1320 nM | 690 nM | 1260 nM | 2.2 min⁻¹ | 3700 M⁻¹ | – | inactive | –

The remaining compounds from weak to strong by IC50 (A-431), led by results:

Row | IC50 (A-431) | IC50 (HL-60) | IC50 (HeLa) | Rate constant (Nucleic Acid [2]) | K (Nucleic Acid [4]) | Compound | Formation of erythema (Cavia porcellus [1]) | Formation of erythema (Cavia porcellus [3]) | Formation of erythema (Cavia porcellus [5])
5 | 2480 nM | 750 nM | 3160 nM | – | – | COc1c2occc2cc2ccc(=O)oc12 [METHOXSALEN] | Active | – | –
6 | 1350 nM | 670 nM | 1760 nM | 2.1 min⁻¹ | 630 M⁻¹ | COc1c2c(C)coc2cc2oc(=O)cc(C)c12 | – | inactive | –
